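Following 48 hours of exposure in 96-well plates, responses at five concentrations were used to interpolate endpoints linearly. GI50 marks 50% less growth.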 Activity calls are given as the source filed them. No stated cut-off is given here; in the data, active = GI50 up to about 1.1 µM and inactive = higher.
Assays:
Assay in all cases: inhibition of tumour cell growth, NCI panel, 48 h
SK-MEL-2 = tested on: SK-MEL-2
786-0 = tested on: 786-0
NCI-H226 = tested on: NCI-H226
A498 = tested on: A498
Malme-3M = tested on: Malme-3M
MCF7 = tested on: MCF7
Hs-578T = tested on: Hs-578T
HT-29 = tested on: HT-29
CCRF-CEM = tested on: CCRF-CEM
T47D = tested on: T47D
SNB-19 = tested on: SNB-19
EKVX = tested on: EKVX
OVCAR-4 = tested on: OVCAR-4
SF-539 = tested on: SF-539
SK-MEL-5 = tested on: SK-MEL-5
UACC-62 = tested on: UACC-62
LOX IMVI = tested on: LOX IMVI
ACHN = tested on: ACHN
MDA-MB-231 = tested on: MDA-MB-231
SK-OV-3 = tested on: SK-OV-3
COLO 205 = tested on: COLO 205
HOP-62 = tested on: HOP-62
SK-MEL-28 = tested on: SK-MEL-28
SN12C = tested on: SN12C
SF-295 = tested on: SF-295
NCI-H23 = tested on: NCI-H23
NCI-H460 = tested on: NCI-H460
HOP-92 = tested on: HOP-92
MOLT-4 = tested on: MOLT-4
UACC-257 = tested on: UACC-257
DU-145 = tested on: DU-145
CAKI-1 = tested on: CAKI-1
MDA-MB-435 = tested on: MDA-MB-435
RXF 393 = tested on: RXF 393
A549 = tested on: A549
SF-268 = tested on: SF-268
U-251 = tested on: U-251
BT-549 = tested on: BT-549
RPMI-8226 = tested on: RPMI-8226
HCT-116 = tested on: HCT-116
HL-60 = tested on: HL-60
M14 = tested on: M14
NCI/ADR-RES = tested on: NCI/ADR-RES
SR = tested on: SR
MDA-N = tested on: MDA-N
IGROV-1 = tested on: IGROV-1
SW-620 = tested on: SW-620
PC-3 = tested on: PC-3
K562 = tested on: K562
HCC 2998 = tested on: HCC 2998
NCI-H522 = tested on: NCI-H522
SNB-75 = tested on: SNB-75
OVCAR-8 = tested on: OVCAR-8
TK-10 = tested on: TK-10
HCT-15 = tested on: HCT-15
KM12 = tested on: KM12
OVCAR-5 = tested on: OVCAR-5
UO-31 = tested on: UO-31
OVCAR-3 = tested on: OVCAR-3
SNB-78 = tested on: SNB-78
DMS-114 = tested on: DMS-114
LXFL 529 = tested on: LXFL 529
KM-20L2 = tested on: KM-20L2
DMS-273 = tested on: DMS-273
XF498 = tested on: XF498
HOP-18 = tested on: HOP-18
M19-MEL = tested on: M19-MEL
DLD-1 = tested on: DLD-1

CN(C)c1ccc(/C=c2\c3cc([N+](=O)[O-])ccc3n3c2cc(-c2ccccc2)[n+]3C)cc1
GI50 (SK-MEL-2): 0.521 µM (active)
GI50 (786-0): 3.31 µM (inactive)
GI50 (NCI-H226): 2.75 µM (inactive)
GI50 (A498): 2.28 µM (inactive)
GI50 (Malme-3M): 0.55 µM (active)
GI50 (MCF7): 0.791 µM (active)
GI50 (Hs-578T): 1.62 µM (inactive)
GI50 (HT-29): 1.52 µM (inactive)
GI50 (CCRF-CEM): 0.601 µM (active)
GI50 (T47D): 0.458 µM (active)
GI50 (SNB-19): 0.925 µM (active)
GI50 (EKVX): 0.998 µM (active)
GI50 (OVCAR-4): 2.17 µM (inactive)
GI50 (SF-539): 0.822 µM (active)
GI50 (SK-MEL-5): 0.318 µM (active)
GI50 (UACC-62): 0.678 µM (active)
GI50 (LOX IMVI): 1.57 µM (inactive)
GI50 (ACHN): 5.51 µM (inactive)
GI50 (MDA-MB-231): 1.73 µM (inactive)
GI50 (SK-OV-3): 3.92 µM (inactive)
GI50 (COLO 205): 0.297 µM (active)
GI50 (HOP-62): 2.04 µM (inactive)
GI50 (SK-MEL-28): 0.948 µM (active)
GI50 (SN12C): 0.454 µM (active)
GI50 (SF-295): 2.32 µM (inactive)
GI50 (NCI-H23): 2.75 µM (inactive)
GI50 (NCI-H460): 3.13 µM (inactive)
GI50 (HOP-92): 1.18 µM (inactive)
GI50 (MOLT-4): 1.75 µM (inactive)
GI50 (UACC-257): 0.918 µM (active)
GI50 (DU-145): 1.95 µM (inactive)
GI50 (CAKI-1): 7.66 µM (inactive)
GI50 (MDA-MB-435): 0.531 µM (active)
GI50 (RXF 393): 1.06 µM (active)
GI50 (A549): 2.94 µM (inactive)
GI50 (SF-268): 0.923 µM (active)
GI50 (U-251): 0.327 µM (active)
GI50 (BT-549): 1.23 µM (inactive)
GI50 (RPMI-8226): 0.264 µM (active)
GI50 (HCT-116): 0.885 µM (active)
GI50 (HL-60): 0.292 µM (active)
GI50 (M14): 1 µM (active)
GI50 (NCI/ADR-RES): 39.8 µM (inactive)
GI50 (SR): 0.29 µM (active)
GI50 (MDA-N): 0.437 µM (active)
GI50 (IGROV-1): 0.964 µM (active)
GI50 (SW-620): 0.836 µM (active)
GI50 (PC-3): 1.91 µM (inactive)
GI50 (K562): 0.265 µM (active)
GI50 (HCC 2998): 2.28 µM (inactive)
GI50 (NCI-H522): 0.497 µM (active)
GI50 (SNB-75): 1.07 µM (active)
GI50 (OVCAR-8): 1.45 µM (inactive)
GI50 (TK-10): 2.64 µM (inactive)
GI50 (HCT-15): 15.5 µM
GI50 (KM12): 1.04 µM (active)
GI50 (OVCAR-5): 3.63 µM (inactive)
GI50 (UO-31): 7.41 µM (inactive)
GI50 (OVCAR-3): 1.46 µM (inactive)

C=CCNC(=S)N1CC(C)C(=O)Nc2ccccc21 (stereo not drawn)
GI50 (SK-MEL-2): > 100 µM (inactive)
GI50 (786-0): > 100 µM (inactive)
GI50 (NCI-H226): > 100 µM (inactive)
GI50 (Malme-3M): > 100 µM (inactive)
GI50 (SNB-78): > 100 µM (inactive)
GI50 (HT-29): > 100 µM (inactive)
GI50 (CCRF-CEM): > 100 µM (inactive)
GI50 (SNB-19): > 100 µM (inactive)
GI50 (EKVX): > 100 µM (inactive)
GI50 (OVCAR-4): > 100 µM (inactive)
GI50 (SF-539): > 100 µM (inactive)
GI50 (DMS-114): > 100 µM (inactive)
GI50 (SK-MEL-5): > 100 µM (inactive)
GI50 (UACC-62): > 100 µM (inactive)
GI50 (LOX IMVI): > 100 µM (inactive)
GI50 (ACHN): > 100 µM (inactive)
GI50 (LXFL 529): > 100 µM (inactive)
GI50 (KM-20L2): > 100 µM (inactive)
GI50 (COLO 205): > 100 µM (inactive)
GI50 (HOP-62): > 100 µM (inactive)
GI50 (SK-MEL-28): > 100 µM (inactive)
GI50 (SN12C): > 100 µM (inactive)
GI50 (SF-295): > 100 µM (inactive)
GI50 (NCI-H23): > 100 µM (inactive)
GI50 (NCI-H460): > 100 µM (inactive)
GI50 (MOLT-4): > 100 µM (inactive)
GI50 (RXF 393): > 100 µM (inactive)
GI50 (DMS-273): > 100 µM (inactive)
GI50 (A549): > 100 µM (inactive)
GI50 (SF-268): > 100 µM (inactive)
GI50 (U-251): > 100 µM (inactive)
GI50 (RPMI-8226): > 100 µM (inactive)
GI50 (HCT-116): > 100 µM (inactive)
GI50 (HL-60): > 100 µM (inactive)
GI50 (M14): > 100 µM (inactive)
GI50 (SR): > 100 µM (inactive)
GI50 (IGROV-1): > 100 µM (inactive)
GI50 (SW-620): > 100 µM (inactive)
GI50 (K562): > 100 µM (inactive)
GI50 (NCI-H522): > 100 µM (inactive)
GI50 (SNB-75): 35.5 µM (inactive)
GI50 (OVCAR-8): > 100 µM (inactive)
GI50 (TK-10): > 100 µM (inactive)
GI50 (HCT-15): > 100 µM
GI50 (KM12): > 100 µM (inactive)
GI50 (OVCAR-5): > 100 µM (inactive)
GI50 (UO-31): > 100 µM (inactive)
GI50 (XF498): > 100 µM (inactive)
GI50 (OVCAR-3): > 100 µM (inactive)

COc1cc2cccc(/N=C\c3ccccc3Cl)c2cc1OC
GI50 (SK-MEL-2): > 100 µM (inactive)
GI50 (HOP-18): > 100 µM (inactive)
GI50 (M19-MEL): > 100 µM (inactive)
GI50 (786-0): > 100 µM (inactive)
GI50 (NCI-H226): > 100 µM (inactive)
GI50 (Malme-3M): > 100 µM (inactive)
GI50 (SNB-78): > 100 µM (inactive)
GI50 (HT-29): 79.6 µM (inactive)
GI50 (CCRF-CEM): 22.8 µM (inactive)
GI50 (SNB-19): > 100 µM (inactive)
GI50 (EKVX): > 100 µM (inactive)
GI50 (OVCAR-4): > 100 µM (inactive)
GI50 (SF-539): > 100 µM (inactive)
GI50 (DMS-114): 35.2 µM (inactive)
GI50 (SK-MEL-5): > 100 µM (inactive)
GI50 (UACC-62): 66.5 µM (inactive)
GI50 (LOX IMVI): 70.3 µM (inactive)
GI50 (ACHN): > 100 µM (inactive)
GI50 (LXFL 529): > 100 µM (inactive)
GI50 (KM-20L2): > 100 µM (inactive)
GI50 (SK-OV-3): > 100 µM (inactive)
GI50 (COLO 205): > 100 µM (inactive)
GI50 (HOP-62): > 100 µM (inactive)
GI50 (SK-MEL-28): > 100 µM (inactive)
GI50 (SN12C): > 100 µM (inactive)
GI50 (SF-295): 69 µM (inactive)
GI50 (NCI-H23): > 100 µM (inactive)
GI50 (NCI-H460): > 100 µM (inactive)
GI50 (HOP-92): > 100 µM (inactive)
GI50 (MOLT-4): > 100 µM (inactive)
GI50 (UACC-257): > 100 µM (inactive)
GI50 (CAKI-1): > 100 µM (inactive)
GI50 (RXF 393): > 100 µM (inactive)
GI50 (A549): > 100 µM (inactive)
GI50 (SF-268): > 100 µM (inactive)
GI50 (U-251): 95.9 µM (inactive)
GI50 (DLD-1): > 100 µM (inactive)
GI50 (RPMI-8226): 78.2 µM (inactive)
GI50 (HCT-116): 80.7 µM (inactive)
GI50 (HL-60): 4.48 µM (inactive)
GI50 (M14): > 100 µM (inactive)
GI50 (SR): 3.94 µM (inactive)
GI50 (IGROV-1): > 100 µM (inactive)
GI50 (SW-620): 26.5 µM (inactive)
GI50 (K562): 4.8 µM (inactive)
GI50 (HCC 2998): > 100 µM (inactive)
GI50 (NCI-H522): > 100 µM (inactive)
GI50 (SNB-75): > 100 µM (inactive)
GI50 (OVCAR-8): > 100 µM (inactive)
GI50 (TK-10): > 100 µM (inactive)
GI50 (HCT-15): 25.5 µM
GI50 (KM12): > 100 µM (inactive)
GI50 (OVCAR-5): > 100 µM (inactive)
GI50 (UO-31): > 100 µM (inactive)
GI50 (OVCAR-3): > 100 µM (inactive)
